The source made the active and inactive calls.
How the values were obtained:
[1] = biological target: T1, E3 ubiquitin-protein ligase XIAP (Homo sapiens, UniProt P98170); assay: small molecules displacing peptide from XIAP – biochemical, IAP family, fluorescence polarization (AID 1018); assay type: functional
[2] = biological target: T1, E3 ubiquitin-protein ligase XIAP; assay: Counter Screen using XIAP-Bir3 for Chemical Antagonists of Bir1/2 domains of IAP-family anti-apoptotic proteins. [Related pubchem assays (depositor defined):AID1018, AID1449, AID1514, AID1638, AID1749, AID1750, AID488957, AID488963]
[3] = biological target: 5-hydroxytryptamine receptor 1E (Homo sapiens, UniProt P28566); assay: Counterscreen assay for S1P3 antagonists: Dose response cell-based high throughput screening assay to identify antagonists of the 5-Hydroxytryptamine Receptor Subtype 1E (5HT1E). [Related pubchem assays: 1429, 485 ]; assay type: functional
[4] = biological target: Sphingosine 1-phosphate receptor 3 (Homo sapiens, UniProt Q99500); assay: Dose response cell-based high throughput screening assay for antagonists of the Sphingosine 1-Phosphate Receptor 3 (S1P3). [Related pubchem assays: 1429, 485 ]; assay type: functional
14-3-3 protein gamma = 14-3-3 protein gamma (Homo sapiens, UniProt P61981); assay: modulators of 14-3-3 gamma client binding – dose response (AID 711); assay type: functional
[5] = biological target: Lytic switch protein BZLF1 (Epstein-Barr virus (strain B95-8) (HHV-4) (Human herpesvirus 4), UniProt P03206); assay: inhibition of BZLF1 ZTA DNA binding – biochemical, fluorescence polarization, Epstein-Barr virus, 1536-well, counter-screen for EBNA-1 inhibitor project, dose response (AID 2377); set-up: species or system human gammaherpesvirus 4;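 note: fluorescence polarization of Cy5-labelled ZRE DNA probe bound by purified Zta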
[6] = biological target: Epstein-Barr nuclear antigen 1 (Epstein-Barr virus (strain B95-8) (HHV-4) (Human herpesvirus 4), UniProt P03211); assay: inhibition of EBV nuclear antigen 1 DNA binding – biochemical, fluorescence polarization, 1536-well, dose response (AID 2381); set-up: species or system human gammaherpesvirus 4;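 note: fluorescence polarization of a Cy5 DNA probe bound by EBNA-1 protein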
[7] = viability loss in HeLa cells – cytotoxicity control for MgcRacGAP inhibitor project, dose response (AID 624300); assay type: functional
Nonstructural protein 1 = Nonstructural protein 1 (Influenza A virus, UniProt Q194T2); assay type: functional, Influenza A virus (A/California/07/2009(H1N1))
Cytochrome P450 2D6 = Cytochrome P450 2D6 (Homo sapiens, UniProt P10635);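 note: CYP2D6 member of a cytochrome P450 panel assay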
[8] = biological target: T2, Rac GTPase-activating protein 1 (Homo sapiens, UniProt Q9H0H5); assay: blockers of MgcRacGAP-driven Rac1 GTP hydrolysis – biochemical, ADP Hunter fluorescence, primary and confirmatory, confirmation (AID 624330); assay type: functional
T2 sequence (Q9H0H5 whole entry): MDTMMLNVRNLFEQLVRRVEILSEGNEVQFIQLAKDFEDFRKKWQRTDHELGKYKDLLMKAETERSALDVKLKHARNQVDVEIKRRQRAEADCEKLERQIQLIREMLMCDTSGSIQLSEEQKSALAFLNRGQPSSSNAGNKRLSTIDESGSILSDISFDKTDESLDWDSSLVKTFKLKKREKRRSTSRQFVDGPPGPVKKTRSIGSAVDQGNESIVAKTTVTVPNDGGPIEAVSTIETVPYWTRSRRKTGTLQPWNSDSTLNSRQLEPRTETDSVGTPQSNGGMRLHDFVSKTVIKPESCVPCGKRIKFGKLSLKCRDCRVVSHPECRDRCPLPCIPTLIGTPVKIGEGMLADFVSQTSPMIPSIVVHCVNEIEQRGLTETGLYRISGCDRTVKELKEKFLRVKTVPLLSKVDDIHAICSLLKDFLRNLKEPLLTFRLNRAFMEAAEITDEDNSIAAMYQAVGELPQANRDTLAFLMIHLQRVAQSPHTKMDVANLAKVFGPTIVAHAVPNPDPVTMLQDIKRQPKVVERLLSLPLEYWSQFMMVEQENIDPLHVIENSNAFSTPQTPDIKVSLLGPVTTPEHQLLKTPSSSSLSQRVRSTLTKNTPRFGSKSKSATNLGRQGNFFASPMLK

[9] = biological target: T3, Mannose-6-phosphate isomerase (Homo sapiens, UniProt P34949); assay: MPI enzyme activity inhibition – biochemical, fluorescence intensity, coupled assay, primary screen (AID 1209)
T3 sequence (P34949 whole entry): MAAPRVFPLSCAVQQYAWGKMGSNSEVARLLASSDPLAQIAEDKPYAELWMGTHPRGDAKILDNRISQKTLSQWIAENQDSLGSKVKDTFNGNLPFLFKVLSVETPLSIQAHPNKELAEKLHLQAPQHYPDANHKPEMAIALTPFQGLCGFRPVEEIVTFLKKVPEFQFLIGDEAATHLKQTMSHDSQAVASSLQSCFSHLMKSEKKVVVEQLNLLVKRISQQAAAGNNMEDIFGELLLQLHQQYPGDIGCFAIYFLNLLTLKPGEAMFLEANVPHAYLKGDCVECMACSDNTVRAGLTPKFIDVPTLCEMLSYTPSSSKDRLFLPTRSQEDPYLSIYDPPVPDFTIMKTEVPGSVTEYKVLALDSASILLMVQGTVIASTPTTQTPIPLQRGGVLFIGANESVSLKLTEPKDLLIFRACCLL

[10] = viability loss in Vero cells – cytotoxicity control for Vif-APOBEC3G degradation inhibitor project, dose response (AID 1117358); assay type: functional; details: Vero
[11] = Luminescence Cell-Based Dose Response to Identify Activators of 5'UTR Stem-Loop Driven Prion Protein mRNA Translation in H4-C Neuroglioblastoma Cells. [Related pubchem assays: 1829 (Project Summary), 1814 (Primary HTS)]; assay type: functional
[12] = Luminescence Cell-Based Dose Response to Identify Activators of Luciferase Translation or Activity in H4-C Neuroglioblastoma Cells. [Related pubchem assays: 1829 (Project Summary), 1814 (Primary HTS)]; assay type: functional
[13] = M. tuberculosis growth inhibition, HTS (AID 449762); assay type: functional
[14] = biological target: Disintegrin and metalloproteinase domain-containing protein 17 (Homo sapiens, UniProt P78536); assay: inhibition of ADAM17 substrate cleavage – biochemical, quenched FRET substrate, counter-screen for ADAM10 exosite inhibitor project, dose response (AID 743253)
[15] = Luminescence Cell-Based Dose Confirmation to Identify Activators of 5'UTR Stem-Loop Driven Alpha-Synuclein mRNA Translation in H4 Neuroglioblastoma Cells. [Related pubchem assays: 1829 (Project Summary), 1814 (Primary HTS)]; assay type: functional
[16] = Luminescence Cell-Based Dose Response HTS to Identify Activators of Luciferase Translation or Activity in H4 […] Cells. [Related pubchem assays: 1829 (Project Summary), 1814 (Primary HTS)]; assay type: functional
[17] = biological target: Heat shock protein HSP 90-alpha (Homo sapiens, UniProt P07900); assay: Luminescence-based dose response biochemical high throughput screening assay for inhibitors of the Heat Shock Protein 90 (HSP90). [Related pubchem assays: 1831 (Summary AID.), 1846 (Confirmation screen.), 1789 (Primary screen.)]
Estrogen receptor beta [18] = biological target: T4, Estrogen receptor beta (Homo sapiens, UniProt Q92731); assay: blockers of SRC-3 recruitment to ERβ – biochemical, ELISA, streptavidin-HRP readout, orthogonal assay, confirmation (AID 1060)
Estrogen receptor beta [19] = biological target: T4, Estrogen receptor beta

T4 sequence (Q92731 whole entry): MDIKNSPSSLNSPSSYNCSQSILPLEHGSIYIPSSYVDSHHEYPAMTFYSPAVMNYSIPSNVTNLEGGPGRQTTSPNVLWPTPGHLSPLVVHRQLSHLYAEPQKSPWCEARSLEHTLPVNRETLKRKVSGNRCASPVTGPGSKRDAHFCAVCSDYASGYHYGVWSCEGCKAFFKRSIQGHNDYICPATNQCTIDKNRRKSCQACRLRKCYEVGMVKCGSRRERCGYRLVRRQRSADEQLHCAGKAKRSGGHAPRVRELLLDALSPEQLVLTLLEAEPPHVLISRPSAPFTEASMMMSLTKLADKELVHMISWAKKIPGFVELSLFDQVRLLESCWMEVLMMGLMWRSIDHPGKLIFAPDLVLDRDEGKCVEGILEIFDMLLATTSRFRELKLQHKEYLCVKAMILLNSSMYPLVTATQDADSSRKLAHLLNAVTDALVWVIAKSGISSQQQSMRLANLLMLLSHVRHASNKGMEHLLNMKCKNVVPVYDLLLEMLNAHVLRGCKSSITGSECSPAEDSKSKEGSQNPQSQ
T1 sequence (P98170 whole entry): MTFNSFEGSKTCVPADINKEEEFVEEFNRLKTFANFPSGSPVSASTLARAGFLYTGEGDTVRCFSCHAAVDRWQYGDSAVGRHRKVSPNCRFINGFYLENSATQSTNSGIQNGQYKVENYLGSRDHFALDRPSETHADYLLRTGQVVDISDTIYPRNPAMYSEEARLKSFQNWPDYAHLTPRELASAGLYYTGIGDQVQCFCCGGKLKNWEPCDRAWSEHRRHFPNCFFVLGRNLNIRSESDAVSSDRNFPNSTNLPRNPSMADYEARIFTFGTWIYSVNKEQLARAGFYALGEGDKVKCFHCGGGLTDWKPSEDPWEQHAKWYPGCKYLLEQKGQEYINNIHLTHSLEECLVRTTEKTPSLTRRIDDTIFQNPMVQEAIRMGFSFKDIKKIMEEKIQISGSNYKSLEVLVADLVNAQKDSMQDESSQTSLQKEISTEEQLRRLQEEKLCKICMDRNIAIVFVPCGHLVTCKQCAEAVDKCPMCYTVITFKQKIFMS
Sphingosine 1-phosphate receptor 3, sequence (Q99500 whole entry): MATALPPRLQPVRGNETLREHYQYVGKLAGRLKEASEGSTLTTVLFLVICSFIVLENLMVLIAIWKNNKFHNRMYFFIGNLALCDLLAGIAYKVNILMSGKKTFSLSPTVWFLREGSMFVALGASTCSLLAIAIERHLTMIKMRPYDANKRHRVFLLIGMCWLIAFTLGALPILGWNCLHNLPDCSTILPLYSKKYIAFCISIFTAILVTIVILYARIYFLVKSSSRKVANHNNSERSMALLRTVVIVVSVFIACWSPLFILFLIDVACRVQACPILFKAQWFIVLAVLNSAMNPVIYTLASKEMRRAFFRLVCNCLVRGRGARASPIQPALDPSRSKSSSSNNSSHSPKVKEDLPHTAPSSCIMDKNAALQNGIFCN
14-3-3 protein gamma, sequence (P61981 whole entry): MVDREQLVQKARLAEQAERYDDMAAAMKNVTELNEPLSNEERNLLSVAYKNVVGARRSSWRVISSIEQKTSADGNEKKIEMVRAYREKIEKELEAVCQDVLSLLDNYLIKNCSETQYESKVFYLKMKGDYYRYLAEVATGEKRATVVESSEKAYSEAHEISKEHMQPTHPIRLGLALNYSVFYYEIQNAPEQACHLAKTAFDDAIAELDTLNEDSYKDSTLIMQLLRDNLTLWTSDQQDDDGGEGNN
Epstein-Barr nuclear antigen 1, sequence (P03211 whole entry): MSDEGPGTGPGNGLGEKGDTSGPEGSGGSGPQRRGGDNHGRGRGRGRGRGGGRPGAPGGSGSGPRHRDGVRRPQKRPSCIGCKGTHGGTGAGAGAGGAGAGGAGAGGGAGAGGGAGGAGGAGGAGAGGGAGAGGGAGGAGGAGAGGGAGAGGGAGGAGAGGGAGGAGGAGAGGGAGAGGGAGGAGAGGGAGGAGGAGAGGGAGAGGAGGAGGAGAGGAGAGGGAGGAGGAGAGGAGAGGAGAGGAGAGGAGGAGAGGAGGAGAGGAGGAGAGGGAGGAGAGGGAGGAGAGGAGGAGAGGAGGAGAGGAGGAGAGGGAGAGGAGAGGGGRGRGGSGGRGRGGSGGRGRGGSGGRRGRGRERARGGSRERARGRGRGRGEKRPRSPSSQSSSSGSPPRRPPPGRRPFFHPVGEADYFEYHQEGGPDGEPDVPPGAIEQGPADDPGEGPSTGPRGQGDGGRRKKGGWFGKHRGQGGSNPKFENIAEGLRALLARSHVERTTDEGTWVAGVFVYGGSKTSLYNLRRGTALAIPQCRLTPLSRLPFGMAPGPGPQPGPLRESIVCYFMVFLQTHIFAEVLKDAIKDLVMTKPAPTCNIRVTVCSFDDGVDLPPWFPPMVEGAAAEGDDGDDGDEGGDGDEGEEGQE
Lytic switch protein BZLF1, sequence (P03206 whole entry): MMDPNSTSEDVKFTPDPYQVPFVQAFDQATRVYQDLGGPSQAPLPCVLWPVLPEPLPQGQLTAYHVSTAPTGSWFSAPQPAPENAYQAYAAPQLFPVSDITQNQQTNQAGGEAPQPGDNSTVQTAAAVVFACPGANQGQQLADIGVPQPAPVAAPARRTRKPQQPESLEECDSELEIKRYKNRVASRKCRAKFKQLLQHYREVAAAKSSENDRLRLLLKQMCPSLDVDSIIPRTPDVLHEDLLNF
Disintegrin and metalloproteinase domain-containing protein 17, sequence (P78536 whole entry, the tested form may be a part): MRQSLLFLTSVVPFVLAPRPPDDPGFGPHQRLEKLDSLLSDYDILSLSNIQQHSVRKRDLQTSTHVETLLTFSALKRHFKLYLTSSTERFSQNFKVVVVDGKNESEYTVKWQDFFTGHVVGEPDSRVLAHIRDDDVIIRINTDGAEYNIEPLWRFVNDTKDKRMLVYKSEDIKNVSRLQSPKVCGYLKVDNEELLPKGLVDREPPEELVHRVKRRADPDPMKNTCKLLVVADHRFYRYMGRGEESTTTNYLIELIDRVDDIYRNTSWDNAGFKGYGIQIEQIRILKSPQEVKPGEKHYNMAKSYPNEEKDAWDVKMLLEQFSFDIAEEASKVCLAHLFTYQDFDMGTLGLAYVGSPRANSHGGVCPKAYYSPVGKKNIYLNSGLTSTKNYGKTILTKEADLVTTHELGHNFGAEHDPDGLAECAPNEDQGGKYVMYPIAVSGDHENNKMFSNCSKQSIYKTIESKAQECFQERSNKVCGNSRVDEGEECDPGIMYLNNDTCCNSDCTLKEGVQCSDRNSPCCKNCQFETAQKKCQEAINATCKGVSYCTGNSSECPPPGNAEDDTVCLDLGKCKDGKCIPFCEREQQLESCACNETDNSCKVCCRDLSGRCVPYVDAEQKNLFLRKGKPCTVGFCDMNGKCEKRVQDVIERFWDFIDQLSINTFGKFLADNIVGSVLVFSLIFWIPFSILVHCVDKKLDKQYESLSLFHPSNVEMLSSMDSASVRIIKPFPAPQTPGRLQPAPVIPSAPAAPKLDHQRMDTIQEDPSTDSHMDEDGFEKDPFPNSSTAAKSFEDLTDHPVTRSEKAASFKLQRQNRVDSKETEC
5-hydroxytryptamine receptor 1E, sequence (P28566 whole entry): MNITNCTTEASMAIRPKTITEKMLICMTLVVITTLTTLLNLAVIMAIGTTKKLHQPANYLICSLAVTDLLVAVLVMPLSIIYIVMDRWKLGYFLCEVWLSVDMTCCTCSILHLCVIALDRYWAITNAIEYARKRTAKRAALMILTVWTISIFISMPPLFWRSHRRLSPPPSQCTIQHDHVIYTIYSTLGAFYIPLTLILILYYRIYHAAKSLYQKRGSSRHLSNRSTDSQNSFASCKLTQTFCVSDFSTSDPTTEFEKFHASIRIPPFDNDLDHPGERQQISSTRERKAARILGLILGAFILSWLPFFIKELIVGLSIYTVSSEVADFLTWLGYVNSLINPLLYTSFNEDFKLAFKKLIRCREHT
Nonstructural protein 1, sequence (Q194T2 whole entry): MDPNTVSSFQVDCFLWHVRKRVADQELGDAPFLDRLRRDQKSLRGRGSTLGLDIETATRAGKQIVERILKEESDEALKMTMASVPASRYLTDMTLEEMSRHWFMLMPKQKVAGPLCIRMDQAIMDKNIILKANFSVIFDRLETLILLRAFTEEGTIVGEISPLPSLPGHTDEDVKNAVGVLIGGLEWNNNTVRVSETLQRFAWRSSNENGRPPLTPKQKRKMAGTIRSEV
Cytochrome P450 2D6, sequence (P10635 whole entry): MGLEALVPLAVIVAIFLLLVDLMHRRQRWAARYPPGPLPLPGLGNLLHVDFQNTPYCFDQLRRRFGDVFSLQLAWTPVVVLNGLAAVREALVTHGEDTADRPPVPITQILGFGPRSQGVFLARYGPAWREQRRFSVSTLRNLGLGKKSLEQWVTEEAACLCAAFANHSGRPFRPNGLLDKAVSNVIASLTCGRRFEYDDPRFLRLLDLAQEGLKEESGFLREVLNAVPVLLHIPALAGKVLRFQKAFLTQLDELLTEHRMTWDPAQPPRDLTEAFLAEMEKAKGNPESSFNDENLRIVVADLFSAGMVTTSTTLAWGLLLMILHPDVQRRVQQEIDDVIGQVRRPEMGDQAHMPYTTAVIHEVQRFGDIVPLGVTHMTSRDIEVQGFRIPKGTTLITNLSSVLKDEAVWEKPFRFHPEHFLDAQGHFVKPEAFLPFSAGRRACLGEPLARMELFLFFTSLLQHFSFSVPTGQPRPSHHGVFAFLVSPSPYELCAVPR

**Q.** Which results are given for `O=C(Nc1ccccc1)c1cc(S(=O)(=O)N2CCSCC2)ccc1Cl`?
**A.** IC50 [1]: > 100 µM (not active); IC50 [2]: > 100 µM (inactive)

**Q.** Which results are given for `Cc1ccccc1C(=O)N1CCN(c2ccc(NC(=O)c3ccc4c(c3)OCO4)cc2)CC1`?
**A.** IC50 [3]: 13.7 µM (not active); IC50 [4]: > 50 µM (not active)

**Q.** With `COc1ccc(C(=O)Oc2ccc(C(C)=O)cc2)c(OC)c1` as the molecule, how does the IC50 (14-3-3 protein gamma) read?
**A.** > 50 µM (not active)

**Q.** Which IC50 [5] does the source give for `Cc1ccc(/C=C2\SC(=S)N(CCC(=O)NNC(=O)c3ccc(O)cc3)C2=O)cc1` here?
**A.** > 111 µM (not active)

**Q.** What about the IC50 [6] of the same molecule?
**A.** 11.6 µM (not active)

**Q.** For `CC(C)/N=c1\scc(-c2ccco2)n1/N=C/c1ccc(O)c(O)c1`, which CC50 [7] is on record?
**A.** 99.4 µM (active)

**Q.** What about the IC50 (Nonstructural protein 1) of the same molecule?
**A.** 39.3 µM (active)

**Q.** What about the AC50 (Cytochrome P450 2D6) of the same molecule?
**A.** 14.1 µM (inconclusive)

**Q.** What about the IC50 [8] of the same molecule?
**A.** 56.3 µM (active)

**Q.** And the IC50 [9]?
**A.** > 50 µM (not active)

**Q.** Which CC50 [10] does the source give for `CCCCCO/C(O)=C1\C(C)=Nc2nnnn2C1c1ccccc1Cl` (configuration not stated) here?
**A.** > 40 µM (active)

**Q.** With `C(=C\c1ccccc1)/C=N/Nc1nc2ccccc2s1` as the molecule, how does the EC50 [11] read?
**A.** 349 nM (active)

**Q.** And the EC50 [12]?
**A.** 289 nM (active)

**Q.** What about the IC50 [13] of the same molecule?
**A.** > 100 µM (active)

**Q.** What about the IC50 [14] of the same molecule?
**A.** > 69.5 µM (inactive)

**Q.** And the EC50 [15]?
**A.** 366 nM (active)

**Q.** What about the EC50 [16] of the same molecule?
**A.** < 100 nM (inconclusive)

**Q.** For `Cc1nc2cc(C(=O)O)ccc2[nH]1`, which IC50 [17] is on record?
**A.** 7.21 µM (active)

**Q.** What about the IC50 (Estrogen receptor beta [18]) of the same molecule?
**A.** 99.5 µM (not active)

**Q.** And the IC50 (Estrogen receptor beta [19])?
**A.** 24.7 µM (active)
